The values that follow come from US20130123358A1, “Metabolic Benefits to Butyrate as a Chronic Diet Supplement” (priority 2009, published 2013).

In one data set the test system is HDAC. The data set can be described thus: Histone Deacetylase Assay Kit, inhibition by butyrate isoforms. The following applies: Histone Deacetylase Assay Kit (Upstate), FIG. 8.
The subject of a further data set is liver cells. To be noted: isolated rat liver; cited from earlier work.
In data set [1] the test system is C57BL/6J mice on high fat diet. The data set can be described thus: Hyperinsulinemic-euglycemic clamp. The following applies: 5% butyrate in HFD 4 weeks. It is filed as in vivo, mouse. As for the experimental part: Hyperinsulinemic-euglycemic clamps were performed at the Penn State Mouse Metabolic Phenotyping Center. The clamps were conducted in C57BL/6 mice at 12 weeks of age after 4 weeks on HFD with or without butyrate supplement. Following overnight fast (˜15 hour), a 2-hour hyperinsulinemic-euglycemic clamp was conducted in awake mice with a primed (150 mU/kg body weight) and continuous infusion of human regular insulin (Humulin; Eli Lilly, Indianapolis, Ind.) at a rate of 2.5 mU/kg/min to raise plasma insulin within a physiological range (Kim et al., 2004). Blood samples (20 μl) were collected at 20 min intervals for the immediate measurement of plasma glucose concentration, and 20% glucose was infused at variable rates to maintain glucose at basal concentrations. Basal and insulin-stimulated whole body glucose turnover were estimated with a continuous infusion of [3-^3H]glucose (PerkinElmer, Boston, Mass.) for 2 hours prior to the clamps (0.05 μCi/min) and throughout the clamps (0.1 μCi/min), respectively. To estimate insulin-stimulated glucose uptake in individual tissues, 2-deoxy-D-[1-^14C]glucose (2-[^14C]DG) was administered as a bolus (10 μCi) at 75 min after the start of clamps. Blood samples were taken before, during, and at the end of clamps for the measurement of plasma [^3H]glucose, ^3H2O, 2-[^14C]DG concentrations, and/or insulin concentrations. At the end of the clamps, mice were euthanized, and tissues were taken for biochemical and molecular analysis.
Glucose concentrations during clamps were analyzed using […] plasma by a glucose oxidase method on a Beckman Glucose Analyzer 2 (Beckman, Fullerton, Calif.). Plasma insulin concentrations were measured by ELISA using kits from Alpco Diagnostics (Salem, N.H.). Plasma concentrations of [3-^3H]glucose, 2-[^14C]DG, and ^3H2O were determined following deproteinization of plasma samples as previously described. The radioactivity of ^3H in tissue glycogen was determined by digesting tissue samples in KOH and precipitating glycogen with ethanol. For the determination of tissue 2-[^14C]DG-6-P content, tissue samples were homogenized, and the supernatants were subjected to an ion-exchange column to separate 2-[^14C]DG-6-P from 2-[^14C]DG. Rates of basal hepatic glucose production (HGP) and insulin-stimulated whole body glucose turnover were determined as the ratio of the [^3H]glucose infusion rate to the specific activity of plasma glucose at the end of the basal period and during the final 30 min of clamp, respectively (Kim et al., 2004). Insulin-stimulated rate of HGP during clamp was determined by subtracting the glucose infusion rate from whole body glucose turnover. Insulin-stimulated glucose uptake in individual tissues was assessed by determining the tissue content of 2-[^14C]DG-6-P and plasma 2-[^14C]DG profile.
Hyperinsulinemic-euglycemic clamps were performed at the Penn State Mouse Metabolic Phenotyping Center. The clamps were conducted in C57BL/6J mice at 12 weeks of age after 4 weeks on HFD with or without a 5% butyrate supplement. Following overnight fast (˜15 hour), a 2-hour hyperinsulinemic-euglycemic clamp was conducted in awake mice with a primed (150 mU/kg body weight) and continuous infusion of human regular insulin (Humulin; Eli Lilly, Indianapolis, Ind.) at a rate of 2.5 mU/kg/min to raise plasma insulin within a physiological range (38). […]

In data set [2] the test system is C57BL/6J mice on high fat diet. The data set can be described thus: Systemic insulin sensitivity (fasting glucose, insulin, ITT, HOMA-IR) in HFD mice. The format is in vivo, mouse. The following applies: butyrate 5% w/w in HFD. As for the experimental part: ITT was conducted by intra-peritoneal (i.p.) injection of insulin (I9278, Sigma) at 0.75 U/kg body weight in mice after a 4 hour fast as previously described (15). Blood glucose was monitored in the tail vein blood using the FreeStyle blood glucose monitoring system (TheraSense, Phoenix, Ariz.).
To test this possibility, systemic insulin sensitivity was analyzed using fasting glucose, insulin, and insulin tolerance.
Tail vein blood was used for the glucose assay after 16 hr fasting during the period of HFD feeding. […] The insulin was determined at 16 weeks on HFD in fasting condition with Lincoplex kit (#MADPK-71k-03, Linco Research Inc., St. Charles, Mo.). […] ITT was done at 12 weeks on HFD (at 16 weeks of age). In FIGS. 2A-2C, data are presented as means±SE (N=9). *P<0.05, **P<0.001 by Student's t test. […] After an overnight fast, blood glucose and insulin were measured and used to determine insulin sensitivity through HOMA IR (IR=fasting insulin […] X fasting glucose mg/dL÷405). Values are the means±SE (N=8 mice). ** P<0.001. […] The gastrocnemius muscle was isolated after insulin (0.75 U/kg) injection in mice for 30 min and used to prepare the whole cell lysate for an immunoblot. The mice on HFD for 13 weeks were used in the signaling assay. FIG. 2F illustrates the degree of the blot signal in the panel 2E, by quantifying the signal and normalizing with protein loading. **P<0.001 (n=2).

Source text for HDAC: Several isoforms of butyrate were purchased (Sigma Aldrich Chemicals, St. Louis, Mo.) and tested for inhibitory activity of HDAC, using a Histone Deacetylase Assay Kit (Upstate Biotechnology, Lake Placid, N.Y.).

On to `CCCC(=O)[O-].[Na+]` [sodium butyrate], for which the “inhibitory activity of HDAC” value with HDAC was “inhibited HDAC”. Also, the “energy metabolism (liver cells)” value in the data set on liver cells is “impairment”. Moreover, in data set [1] (clamp), the “insulin sensitivity in the liver (hepatic glucose production)” value is on record as “also improved”, the “insulin-stimulated glucose uptake in brown adipose tissue” value is reported as “improved” and the “insulin-stimulated glucose uptake in white adipose tissue” value is “improved”. In data set [1] (clamp, gastrocnemius), the “insulin-stimulated glucose uptake in muscle” value is given as “improved”. The “glucose infusion rate, increase” value in data set [1] (last 40 min of clamps) stood at 40%. For the same compound, the “insulin tolerance test (ITT) response” value in data set [2] (12 weeks, insulin 0.75 U/kg i.p., 30, 60, 120 and 180 min) is “much better response to insulin at all time points”. In data set [2] (16 weeks on HFD), the “fasting insulin, lower than control” value is 50%. The “fasting glucose (HFD-induced increase)” value in data set [2] (after 10 weeks, 16 hr fasting) is recorded as “this increase was not observed”. Further, the “HOMA-IR, lower than control” value in data set [2] (overnight fast) worked out at 60%.
